The values that follow come from paper PMC5218480 (PLoS ONE, 2017).

The subject of the test is MV-4-11 cells. Description: Gene expression microarray analysis (Affymetrix PrimeView) and GSEA. It is filed as cell-based, human. Further details: RFU PODN (11730768_x_at) / Fold change /veh PODN (11730768_x_at) / RFU LINC00158 (11744669_a_at) / Fold change /veh LINC00158 (11744669_a_at) / RFU DUSP10 (11751237_a_at) / Fold change /veh DUSP10 (11751237_a_at) / RFU ID3 (11757404_x_at) / Fold change /veh ID3 (11757404_x_at) / RFU PLEKHG5 (11737974_s_at) / Fold change /veh PLEKHG5 (11737974_s_at) / RFU LRRC4B (11730491_at) / Fold change /veh LRRC4B (11730491_at) / RFU GIMAP4 (11747438_a_at) / Fold change /veh GIMAP4 (11747438_a_at) / RFU KRT8 (11758183_x_at) / Fold change /veh KRT8 (11758183_x_at) / RFU CNN1 (11734310_a_at) / Fold change /veh CNN1 (11734310_a_at) / RFU VPS37D (11726825_at) / Fold change /veh VPS37D (11726825_at) / RFU C10orf10 (11716522_x_at) / Fold change /veh C10orf10 (11716522_x_at) / RFU KIR2DL2 /// KIR2DL4 /// KIR2DL5A /// KIR2DL5B /// KIR2DS1 /// KIR2DS2 /// KIR2DS3 /// KIR2DS4 /// KIR3DL3 /// KIR3DL3 /// KIR3DS1 (11738374_at) / Fold change /veh KIR2DL2 /// KIR2DL4 /// KIR2DL5A /// KIR2DL5B /// KIR2DS1 /// KIR2DS2 /// KIR2DS3 /// KIR2DS4 /// KIR3DL3 /// KIR3DL3 /// KIR3DS1 (11738374_at) / RFU C1QL1 (11718748_at) / Fold change /veh C1QL1 (11718748_at) / RFU TMPRSS4 (11747572_a_at) / Fold change /veh TMPRSS4 (11747572_a_at) / RFU HAMP (11756126_x_at) / Fold change /veh HAMP (11756126_x_at) / RFU RNFT2 (11725882_a_at) / Fold change /veh RNFT2 (11725882_a_at) / RFU NR4A2 (11747474_a_at) / Fold change /veh NR4A2 (11747474_a_at) / RFU ABCC12 (11746883_a_at) / Fold change /veh ABCC12 (11746883_a_at) / RFU TMEM136 (11760407_x_at) / Fold change /veh TMEM136 (11760407_x_at) / RFU CLDN22 /// WWC2 (11732394_at) / Fold change /veh CLDN22 /// WWC2 (11732394_at) / RFU HLA-DPB1 (11760878_x_at) / Fold change /veh HLA-DPB1 (11760878_x_at) / RFU SPINT1 (11716480_a_at) / Fold change /veh SPINT1 (11716480_a_at) / RFU GAP43 (11754022_s_at) / Fold change /veh GAP43 (11754022_s_at) / RFU A4GNT (11735810_at) / Fold change /veh A4GNT (11735810_at) / RFU PRB3 (11715151_x_at) / Fold change /veh PRB3 (11715151_x_at) / RFU TUBB4B (11761932_at) / Fold change /veh TUBB4B (11761932_at) / RFU CAPN14 (11732068_a_at) / Fold change /veh CAPN14 (11732068_a_at) / RFU TMCC2 (11721928_a_at) / Fold change /veh TMCC2 (11721928_a_at) / RFU IRGQ (11745062_a_at) / Fold change /veh IRGQ (11745062_a_at) / RFU FAM174B (11720279_a_at) / Fold change /veh FAM174B (11720279_a_at) / RFU TMPRSS4 (11748680_a_at) / Fold change /veh TMPRSS4 (11748680_a_at) / RFU FAM212B (11763350_a_at) / Fold change /veh FAM212B (11763350_a_at) / RFU PLEKHG5 (11743358_a_at) / Fold change /veh PLEKHG5 (11743358_a_at) / RFU ZSCAN30 (11745921_a_at) / Fold change /veh ZSCAN30 (11745921_a_at) / RFU CMKLR1 (11741424_a_at) / Fold change /veh CMKLR1 (11741424_a_at) / RFU LOC101060620 /// MAPK8IP1 (11723275_at) / Fold change /veh LOC101060620 /// MAPK8IP1 (11723275_at) / RFU SPTSSB (11747773_x_at) / Fold change /veh SPTSSB (11747773_x_at) / RFU PRSS12 (11739890_at) / Fold change /veh PRSS12 (11739890_at) / RFU BIN1 (11741810_x_at) / Fold change /veh BIN1 (11741810_x_at) / RFU WNT11 (11732464_a_at) / Fold change /veh WNT11 (11732464_a_at) / RFU C10orf10 (11716521_a_at) / Fold change /veh C10orf10 (11716521_a_at) / RFU C5orf56 (11738089_at) / Fold change /veh C5orf56 (11738089_at) / RFU CYB561 (11721691_x_at) / Fold change /veh CYB561 (11721691_x_at) / RFU ANKRD19P (11752326_a_at) / Fold change /veh ANKRD19P (11752326_a_at) / RFU OR2T12 /// OR2T33 /// OR2T8 (11738714_s_at) / Fold change /veh OR2T12 /// OR2T33 /// OR2T8 (11738714_s_at) / RFU VCAN (11748164_a_at) / Fold change /veh VCAN (11748164_a_at) / RFU JSRP1 (11732532_at) / Fold change /veh JSRP1 (11732532_at) / RFU KRTAP10-11 (11738290_x_at) / Fold change /veh KRTAP10-11 (11738290_x_at) / RFU MYO3A (11730013_a_at) / Fold change /veh MYO3A (11730013_a_at) / RFU EBF3 (11725865_a_at) / Fold change /veh EBF3 (11725865_a_at) / RFU CAMK2N1 (11719241_x_at) / Fold change /veh CAMK2N1 (11719241_x_at) / RFU C5orf56 (11738088_a_at) / Fold change /veh C5orf56 (11738088_a_at) / RFU OLFML3 (11715873_a_at) / Fold change /veh OLFML3 (11715873_a_at) / RFU LOC100653217 /// NTM (11731650_a_at) / Fold change /veh LOC100653217 /// NTM (11731650_a_at) / RFU MAPK11 (11762145_a_at) / Fold change /veh MAPK11 (11762145_a_at) / RFU FIZ1 (11724087_x_at) / Fold change /veh FIZ1 (11724087_x_at) / RFU OASL (11726364_x_at) / Fold change /veh OASL (11726364_x_at) / RFU SOX15 (11748057_x_at) / Fold change /veh SOX15 (11748057_x_at) / RFU CD79A (11719716_a_at) / Fold change /veh CD79A (11719716_a_at) / RFU HIST1H1D (11736915_at) / Fold change /veh HIST1H1D (11736915_at) / RFU CASKIN2 (11723855_a_at) / Fold change /veh CASKIN2 (11723855_a_at) / RFU LOC730098 (11760151_x_at) / Fold change /veh LOC730098 (11760151_x_at) / RFU OR4N2 (11742367_at) / Fold change /veh OR4N2 (11742367_at) / RFU PRRT2 (11749266_a_at) / Fold change /veh PRRT2 (11749266_a_at) / RFU SNX32 (11753110_a_at) / Fold change /veh SNX32 (11753110_a_at) / RFU CDHR5 (11726645_a_at) / Fold change /veh CDHR5 (11726645_a_at) / RFU RCAN1 (11760418_a_at) / Fold change /veh RCAN1 (11760418_a_at) / RFU FAM167A (11723789_a_at) / Fold change /veh FAM167A (11723789_a_at) / RFU FAM26E (11764081_at) / Fold change /veh FAM26E (11764081_at) / RFU ISYNA1 (11749810_s_at) / Fold change /veh ISYNA1 (11749810_s_at) / RFU ACY1 (11761880_at) / Fold change /veh ACY1 (11761880_at) / RFU 11764098_at / Fold change /veh 11764098_at / RFU SAMD14 (11745864_x_at) / Fold change /veh SAMD14 (11745864_x_at) / RFU NPB (11741838_a_at) / Fold change /veh NPB (11741838_a_at) / RFU TMPRSS6 (11731388_a_at) / Fold change /veh TMPRSS6 (11731388_a_at) / RFU KRTAP10-2 (11738614_at) / Fold change /veh KRTAP10-2 (11738614_at) / RFU ARHGAP8 /// PRR5-ARHGAP8 (11727945_x_at) / Fold change /veh ARHGAP8 /// PRR5-ARHGAP8 (11727945_x_at) / RFU KRTAP5-7 /// NADSYN1 (11734609_at) / Fold change /veh KRTAP5-7 /// NADSYN1 (11734609_at) / RFU RASL12 (11751679_a_at) / Fold change /veh RASL12 (11751679_a_at) / RFU CDKN2B (11736163_a_at) / Fold change /veh CDKN2B (11736163_a_at) / RFU PRF1 (11729649_at) / Fold change /veh PRF1 (11729649_at) / RFU, ZNF638 /// ZNF638-IT1 / Fold change vs veh, ZNF638 /// ZNF638-IT1 / RFU, PANK3 / Fold change vs veh, PANK3 / RFU, SH3YL1 / Fold change vs veh, SH3YL1 / RFU, ZEB2 / Fold change vs veh, ZEB2 / RFU, NRIP1 / Fold change vs veh, NRIP1 / RFU, PTTG1IP / Fold change vs veh, PTTG1IP / RFU, CAPN2 / Fold change vs veh, CAPN2 / RFU, MED14 / Fold change vs veh, MED14 / RFU, SNORA58 / Fold change vs veh, SNORA58 / RFU, C1orf63 / Fold change vs veh, C1orf63 / RFU, LRRFIP1 / Fold change vs veh, LRRFIP1 / RFU, NDUFAF7 / Fold change vs veh, NDUFAF7 / RFU, SLC12A2 / Fold change vs veh, SLC12A2 / RFU, IBTK / Fold change vs veh, IBTK / RFU, ESF1 / Fold change vs veh, ESF1 / Fold change vs veh, TMEM50B / RFU, TAOK1 / Fold change vs veh, TAOK1 / RFU, ACBD3 / Fold change vs veh, ACBD3 / RFU, TMA16 / Fold change vs veh, TMA16 / RFU, RWDD3 / Fold change vs veh, RWDD3 / RFU, BCAT1 / Fold change vs veh, BCAT1 / RFU, EDEM3 / Fold change vs veh, EDEM3 / RFU, TMEM33 / Fold change vs veh, TMEM33 / RFU, WDR75 / Fold change vs veh, WDR75 / RFU, AHCTF1 / Fold change vs veh, AHCTF1 / RFU, TFRC / Fold change vs veh, TFRC / RFU, ZDHHC17 / Fold change vs veh, ZDHHC17 / RFU, NOM1 / Fold change vs veh, NOM1 / RFU, ARL8B / Fold change vs veh, ARL8B / RFU, ZBTB11 / Fold change vs veh, ZBTB11 / RFU, TAMM41 / Fold change vs veh, TAMM41 / RFU, KIAA1704 /// LOC100996395 / Fold change vs veh, KIAA1704 /// LOC100996395 / RFU, ING1 / Fold change vs veh, ING1 / RFU, TRMT61B / Fold change vs veh, TRMT61B / RFU, FUBP3 / Fold change vs veh, FUBP3 / RFU, TP53 / Fold change vs veh, TP53 / RFU, TNKS2 / Fold change vs veh, TNKS2 / RFU, ZFP14 / Fold change vs veh, ZFP14 / RFU, ACTR2 / Fold change vs veh, ACTR2 / RFU, PPP3R1 / Fold change vs veh, PPP3R1 / RFU, PIK3R1 / Fold change vs veh, PIK3R1 / RFU, HNRNPA1 / Fold change vs veh, HNRNPA1 / RFU, RNF170 / Fold change vs veh, RNF170 / RFU, ZNF28 / Fold change vs veh, ZNF28 / RFU, RNGTT / Fold change vs veh, RNGTT / RFU, OGT / Fold change vs veh, OGT / RFU, BRD1 / Fold change vs veh, BRD1 / RFU, MARS / Fold change vs veh, MARS / RFU, ZNF655 / Fold change vs veh, ZNF655 / RFU, FAHD1 / Fold change vs veh, FAHD1 / RFU, BDP1 / Fold change vs veh, BDP1 / RFU, LRRCC1 / Fold change vs veh, LRRCC1 / RFU, ARID1A / Fold change vs veh, ARID1A / RFU, ZNF146 / Fold change vs veh, ZNF146 / RFU, ZNF330 / Fold change vs veh, ZNF330 / RFU, GPN3 / Fold change vs veh, GPN3 / RFU, C9orf123 / Fold change vs veh, C9orf123 / RFU, N4BP2L2 / Fold change vs veh, N4BP2L2 / RFU, ARFIP1 / Fold change vs veh, ARFIP1 / RFU, FAM179B / Fold change vs veh, FAM179B / RFU, BCL10 / Fold change vs veh, BCL10 / RFU, UHRF1BP1L / Fold change vs veh, UHRF1BP1L / RFU, BET1 / Fold change vs veh, BET1 / RFU, CNOT2 / Fold change vs veh, CNOT2 / RFU, ZNF268 / Fold change vs veh, ZNF268 / Fold change vs veh, ZNF507 / RFU, DGCR2 / Fold change vs veh, DGCR2 / RFU, WDSUB1 / Fold change vs veh, WDSUB1 / Fold change vs veh, HSP90B1 /// MIR3652 / RFU, ADSS / Fold change vs veh, ADSS / RFU, GK / Fold change vs veh, GK / RFU, ZNF148 / Fold change vs veh, ZNF148 / RFU, TAF9 / Fold change vs veh, TAF9 / RFU, SLC1A5 / Fold change vs veh, SLC1A5 / RFU, SLMO2 / Fold change vs veh, SLMO2 / RFU, ABCC4 / Fold change vs veh, ABCC4 / RFU, LOC101060439 /// RAP1B / Fold change vs veh, LOC101060439 /// RAP1B / RFU, RFX7 / Fold change vs veh, RFX7 / RFU, GTPBP10 / Fold change vs veh, GTPBP10 / RFU, CNEP1R1 / Fold change vs veh, CNEP1R1 / RFU, BIVM-ERCC5 /// ERCC5 / Fold change vs veh, BIVM-ERCC5 /// ERCC5 / RFU, ILF3 / Fold change vs veh, ILF3 / RFU 11762660_at / Fold change /veh 11762660_at / RFU VCAN (11757783_s_at) / Fold change /veh VCAN (11757783_s_at) / RFU DDX43 (11728927_at) / Fold change /veh DDX43 (11728927_at) / RFU KRT8 (11758188_x_at) / Fold change /veh KRT8 (11758188_x_at) / RFU NKD1 (11759106_at) / Fold change /veh NKD1 (11759106_at) / RFU SRD5A1 (11742802_a_at) / Fold change /veh SRD5A1 (11742802_a_at) / RFU TPSAB1 /// TPSB2 (11721975_s_at) / Fold change /veh TPSAB1 /// TPSB2 (11721975_s_at) / RFU GSTM3 (11746129_a_at) / Fold change /veh GSTM3 (11746129_a_at) / RFU IL23R (11737362_x_at) / Fold change /veh IL23R (11737362_x_at) / RFU TMEM51 (11727254_a_at) / Fold change /veh TMEM51 (11727254_a_at) / RFU PIWIL2 (11732686_x_at) / Fold change /veh PIWIL2 (11732686_x_at) / RFU ORM1 (11744905_x_at) / Fold change /veh ORM1 (11744905_x_at) / RFU CCDC152 (11743942_at) / Fold change /veh CCDC152 (11743942_at) / RFU ECM1 (11717891_a_at) / Fold change /veh ECM1 (11717891_a_at) / RFU IL23R (11748794_a_at) / Fold change /veh IL23R (11748794_a_at) / RFU TNFAIP8L3 (11732012_x_at) / Fold change /veh TNFAIP8L3 (11732012_x_at) / RFU MBOAT4 (11741988_at) / Fold change /veh MBOAT4 (11741988_at) / RFU 11764193_at / Fold change /veh 11764193_at / RFU TMEM53 (11763286_at) / Fold change /veh TMEM53 (11763286_at) / RFU MAGEB2 (11727129_at) / Fold change /veh MAGEB2 (11727129_at) / RFU TMEM200A (11744735_a_at) / Fold change /veh TMEM200A (11744735_a_at) / RFU CCDC152 (11751479_a_at) / Fold change /veh CCDC152 (11751479_a_at) / RFU FAM211A (11726209_a_at) / Fold change /veh FAM211A (11726209_a_at) / RFU RGS16 (11746705_a_at) / Fold change /veh RGS16 (11746705_a_at) / RFU VCAN (11755009_s_at) / Fold change /veh VCAN (11755009_s_at) / RFU RHOB (11743442_s_at) / Fold change /veh RHOB (11743442_s_at) / RFU RGS16 (11720943_a_at) / Fold change /veh RGS16 (11720943_a_at) / RFU RGS16 (11720944_at) / Fold change /veh RGS16 (11720944_at) / RFU, VPS4B / Fold change vs veh, VPS4B / RFU, CREB1 / Fold change vs veh, CREB1 / RFU, DNAJC13 / Fold change vs veh, DNAJC13 / RFU, GNAQ / Fold change vs veh, GNAQ / RFU, CDK5R1 / Fold change vs veh, CDK5R1 / RFU, ZRANB3 / Fold change vs veh, ZRANB3 / RFU, CUL4A / Fold change vs veh, CUL4A / RFU, CCNY / Fold change vs veh, CCNY / RFU, UFL1 / Fold change vs veh, UFL1 / RFU, COG3 / Fold change vs veh, COG3 / RFU, DIAPH2 / Fold change vs veh, DIAPH2 / RFU, SKA2 / Fold change vs veh, SKA2 / RFU, AFF3 / Fold change vs veh, AFF3 / RFU, LMF1 / Fold change vs veh, LMF1 / RFU, IPO11 / Fold change vs veh, IPO11 / RFU, DFFB / Fold change vs veh, DFFB / RFU, FOXP1 / Fold change vs veh, FOXP1 / RFU, CARD8 / Fold change vs veh, CARD8 / RFU, STRN3 / Fold change vs veh, STRN3 / RFU, ADK / Fold change vs veh, ADK / RFU, RASSF2 / Fold change vs veh, RASSF2 / RFU, WIPF1 / Fold change vs veh, WIPF1 / RFU, LARP1B / Fold change vs veh, LARP1B / RFU, RASA1 / Fold change vs veh, RASA1 / RFU, RB1 / Fold change vs veh, RB1 / RFU, PPFIA1 / Fold change vs veh, PPFIA1 / RFU, MAT2A / Fold change vs veh, MAT2A / RFU, CCT5 / Fold change vs veh, CCT5 / RFU, WDR92 / Fold change vs veh, WDR92 / RFU, CUX1 / Fold change vs veh, CUX1 / RFU, TTC7A / Fold change vs veh, TTC7A / RFU, TMEM135 / Fold change vs veh, TMEM135 / RFU, DEPTOR / Fold change vs veh, DEPTOR / RFU, CPM / Fold change vs veh, CPM / RFU, DNAJB6 / Fold change vs veh, DNAJB6 / RFU, CACNA2D3 / Fold change vs veh, CACNA2D3 / RFU, DTX4 / Fold change vs veh, DTX4 / RFU, TFCP2 / Fold change vs veh, TFCP2 / RFU, GMCL1 /// GMCL1P1 / Fold change vs veh, GMCL1 /// GMCL1P1 / RFU, AEBP2 / Fold change vs veh, AEBP2 / RFU, SNHG1 /// SNORD22 /// SNORD25 /// SNORD26 /// SNORD27 /// SNORD28 /// SNORD29 /// SNORD31 / Fold change vs veh, SNHG1 /// SNORD22 /// SNORD25 /// SNORD26 /// SNORD27 /// SNORD28 /// SNORD29 /// SNORD31 / Fold change (Aza/veh), C12orf56 (ProbeSet 11735607_a_at) / Fold change (ACY-1035/veh), C12orf56 (ProbeSet 11735607_a_at) / Fold change (Aza/veh), FGFR1OP (ProbeSet 11751329_s_at) / Fold change (ACY-1035/veh), FGFR1OP (ProbeSet 11751329_s_at) / Fold change (Aza/veh), VPS36 (ProbeSet 11739960_a_at) / Fold change (ACY-1035/veh), VPS36 (ProbeSet 11739960_a_at) / RFU SYPL1 (11715823_x_at) / Fold change /veh SYPL1 (11715823_x_at) / RFU IGFBP7 (11715501_s_at) / Fold change /veh IGFBP7 (11715501_s_at) / RFU REEP3 (11722064_at) / Fold change /veh REEP3 (11722064_at) / RFU IGLL1 (11728026_x_at) / Fold change /veh IGLL1 (11728026_x_at): dose or concentration left out as unconfirmed. The settings on record: MV-4-11 cells, 48 hours.

`Nc1ncn([C@@H]2O[C@H](CO)[C@@H](O)[C@H]2O)c(=O)n1` [azacitidine]: the “Fold change /veh PLEKHG5 (11737974_s_at)” value is given as 1.17.
